How the values were obtained:
[1] = Solubility in PGME and PGMEA at 23° C.; assay type: physicochemical; conditions: for solubility in PGME: 1-methoxy-2-propanol (PGME); for solubility in PGMEA: propylene glycol monomethyl ether acetate (PGMEA)
Method: The amount of each compound dissolved in 1-methoxy-2-propanol (PGME) and propylene glycol monomethyl ether acetate (PGMEA) was measured at 23° C., and the results were evaluated with respect to the solubility according to the following criteria.
Evaluation A: 20% by mass or more
Evaluation B: 10% by mass or more and less than 20% by mass
Evaluation C: less than 10% by mass

[2] = Thermal weight loss temperature (thermogravimetric measurement, TG); assay type: physicochemical; conditions: heated to 500° C. at 10° C./min, nitrogen stream
Method: (Thermal Weight Loss Temperature)
An “EXSTAR 6000 […] apparatus” manufactured by SII NanoTechnology Inc. was used, and about 5 mg of a sample was placed in an unsealed aluminum container and heated to 500° C. at a rate of temperature rise of 10° C./min in a nitrogen gas (30 mL/min) stream. The 10% thermal weight loss temperature was here measured.

Row | Structure (SMILES) | solubility in PGME [1] | solubility in PGME, Evaluation [1] | solubility in PGMEA, Evaluation [1] | 10% thermal weight loss temperature [2] | solubility in PGMEA [1]
1 | Oc1ccc2c3c(ccc2c1)Oc1ccc2cc(O)ccc2c1C3c1ccc(I)cc1 [A-2] | ≥ 20 % by mass | A (Evaluation A: 20% by mass or more) | B (Evaluation B: 10% by mass or more and less than 20% by mass) | ≥ 400 °C | –
2 | COc1cc(C2c3c(ccc4cc(O)ccc34)Oc3ccc4cc(O)ccc4c32)cc(I)c1O [A-3] | ≥ 20 % by mass | A (Evaluation A: 20% by mass or more) | A (Evaluation A: 20% by mass or more) | ≥ 400 °C | ≥ 20 % by mass
3 | Oc1ccc2c3c(ccc2c1)Oc1ccc2cc(O)ccc2c1C3c1ccc(I)o1 [A-4] | ≥ 20 % by mass | A (Evaluation A: 20% by mass or more) | A (Evaluation A: 20% by mass or more) | ≥ 400 °C | ≥ 20 % by mass

Further lines, results first:

Row | solubility in PGME [1] | solubility in PGME, Evaluation [1] | solubility in PGMEA, Evaluation [1] | 10% thermal weight loss temperature [2] | solubility in PGMEA [1] | Structure (SMILES)
4 | ≥ 20 % by mass | A (Evaluation A: 20% by mass or more) | A (Evaluation A: 20% by mass or more) | ≥ 400 °C | ≥ 20 % by mass | Oc1ccc2ccc3c(c2c1)C(c1ccc(I)o1)c1c(ccc2ccc(O)cc12)O3 [B-4]
5 | ≥ 20 % by mass | A (Evaluation A: 20% by mass or more) | A (Evaluation A: 20% by mass or more) | ≥ 400 °C | ≥ 20 % by mass | COc1cc(C2c3c(ccc4ccc(O)cc34)Oc3ccc4ccc(O)cc4c32)cc(I)c1O [B-3]
6 | ≥ 20 % by mass | A (Evaluation A: 20% by mass or more) | A (Evaluation A: 20% by mass or more) | ≥ 400 °C | ≥ 20 % by mass | Oc1ccc2ccc3c(c2c1)C(c1ccc(I)cc1)c1c(ccc2ccc(O)cc12)O3 [B-2]
